Legend:
[1] = target: T1, Protein deacetylase HDAC6 (Homo sapiens) (UniProt Q9UBN7); test: Potency index, ratio of test compound residence time to ricolinostat residence time in full length HDAC6-NanoLuc fusion protein (unknown origin) expressed in HeLa cells by NanoBRET assay; assay type: cell-based
T1 sequence (whole entry): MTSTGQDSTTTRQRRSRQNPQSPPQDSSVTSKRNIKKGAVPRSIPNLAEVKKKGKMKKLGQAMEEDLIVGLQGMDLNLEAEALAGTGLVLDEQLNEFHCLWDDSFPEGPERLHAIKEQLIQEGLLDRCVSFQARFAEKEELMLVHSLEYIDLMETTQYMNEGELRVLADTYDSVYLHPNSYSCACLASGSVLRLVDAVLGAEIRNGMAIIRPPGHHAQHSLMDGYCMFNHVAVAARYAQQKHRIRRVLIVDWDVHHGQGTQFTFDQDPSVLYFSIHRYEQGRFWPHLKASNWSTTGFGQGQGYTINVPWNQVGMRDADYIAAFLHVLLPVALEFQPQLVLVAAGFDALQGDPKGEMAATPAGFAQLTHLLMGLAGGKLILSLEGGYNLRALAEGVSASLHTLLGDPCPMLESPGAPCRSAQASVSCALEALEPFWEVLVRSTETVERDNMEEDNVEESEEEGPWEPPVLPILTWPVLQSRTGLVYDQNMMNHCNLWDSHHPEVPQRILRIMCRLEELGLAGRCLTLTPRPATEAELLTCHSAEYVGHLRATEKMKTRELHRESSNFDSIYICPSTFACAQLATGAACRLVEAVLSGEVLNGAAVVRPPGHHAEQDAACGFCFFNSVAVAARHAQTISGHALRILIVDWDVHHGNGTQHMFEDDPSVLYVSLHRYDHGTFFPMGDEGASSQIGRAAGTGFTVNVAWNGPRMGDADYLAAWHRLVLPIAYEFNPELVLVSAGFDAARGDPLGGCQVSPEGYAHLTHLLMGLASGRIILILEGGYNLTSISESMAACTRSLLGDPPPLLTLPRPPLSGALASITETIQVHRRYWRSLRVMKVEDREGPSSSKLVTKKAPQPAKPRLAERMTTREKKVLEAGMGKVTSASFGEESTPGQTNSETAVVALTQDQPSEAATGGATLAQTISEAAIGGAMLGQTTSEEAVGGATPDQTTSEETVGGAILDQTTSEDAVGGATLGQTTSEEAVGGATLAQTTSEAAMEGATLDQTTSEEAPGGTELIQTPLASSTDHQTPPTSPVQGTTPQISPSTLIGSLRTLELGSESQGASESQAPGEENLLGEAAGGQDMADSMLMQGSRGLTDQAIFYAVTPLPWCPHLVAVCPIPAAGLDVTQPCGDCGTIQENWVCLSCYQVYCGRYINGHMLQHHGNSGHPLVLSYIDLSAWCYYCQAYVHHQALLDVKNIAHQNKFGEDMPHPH

[2] = in vitro; conditions: human, MRC9 cells
[3] = target: Histone deacetylase 5 (Homo sapiens, UniProt Q9UQL6); test: Inhibition of full length human recombinant HDAC5 expressed in Sf9 baculovirus system using FAM-labeled acetylated peptide as substrate by measuring fluorescence intensity by EMSA method
Sequence of Histone deacetylase 5 (Q9UQL6 whole entry): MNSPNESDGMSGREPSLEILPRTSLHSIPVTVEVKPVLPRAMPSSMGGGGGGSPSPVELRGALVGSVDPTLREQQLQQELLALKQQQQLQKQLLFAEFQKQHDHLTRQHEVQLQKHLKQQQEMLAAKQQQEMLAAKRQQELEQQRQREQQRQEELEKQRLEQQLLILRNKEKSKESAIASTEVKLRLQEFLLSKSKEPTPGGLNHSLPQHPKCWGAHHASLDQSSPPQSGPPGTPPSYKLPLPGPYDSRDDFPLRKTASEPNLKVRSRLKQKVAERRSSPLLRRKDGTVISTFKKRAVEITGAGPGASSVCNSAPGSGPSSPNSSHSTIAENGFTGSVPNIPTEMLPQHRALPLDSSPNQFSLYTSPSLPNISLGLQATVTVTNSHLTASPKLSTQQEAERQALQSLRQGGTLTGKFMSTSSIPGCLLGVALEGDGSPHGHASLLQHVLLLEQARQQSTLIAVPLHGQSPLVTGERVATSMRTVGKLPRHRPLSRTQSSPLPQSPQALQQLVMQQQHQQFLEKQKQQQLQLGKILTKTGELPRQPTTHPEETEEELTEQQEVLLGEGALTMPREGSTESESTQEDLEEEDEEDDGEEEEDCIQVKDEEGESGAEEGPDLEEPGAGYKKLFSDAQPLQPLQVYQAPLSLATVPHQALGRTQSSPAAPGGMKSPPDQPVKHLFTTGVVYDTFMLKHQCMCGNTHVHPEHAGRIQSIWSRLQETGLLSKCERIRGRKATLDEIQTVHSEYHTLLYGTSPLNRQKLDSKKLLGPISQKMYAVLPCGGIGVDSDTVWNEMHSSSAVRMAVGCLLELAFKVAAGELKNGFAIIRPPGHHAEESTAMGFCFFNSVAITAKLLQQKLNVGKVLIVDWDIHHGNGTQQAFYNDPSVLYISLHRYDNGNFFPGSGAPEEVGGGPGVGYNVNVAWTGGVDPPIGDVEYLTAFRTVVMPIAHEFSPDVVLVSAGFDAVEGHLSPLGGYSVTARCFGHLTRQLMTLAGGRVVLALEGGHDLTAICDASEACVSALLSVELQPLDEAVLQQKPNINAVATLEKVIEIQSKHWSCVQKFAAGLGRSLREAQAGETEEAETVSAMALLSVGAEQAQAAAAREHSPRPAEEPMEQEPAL

[4] = system: MV4-11; test: Induction of apoptosis in human MV4-11 cells assessed as late apoptotic cells at 2 uM after 24 hrs by Annexin V/PI staining based flow cytometric analysis (Rvb=2%); assay type: functional
[5] = target: Histone deacetylase 9 (Homo sapiens, UniProt Q9UKV0); test: Inhibition of full length human recombinant HDAC9 expressed in Sf9 baculovirus system using FAM-labeled acetylated peptide as substrate by measuring fluorescence intensity by EMSA method
Sequence of Histone deacetylase 9 (Q9UKV0 whole entry, the tested form may be a part): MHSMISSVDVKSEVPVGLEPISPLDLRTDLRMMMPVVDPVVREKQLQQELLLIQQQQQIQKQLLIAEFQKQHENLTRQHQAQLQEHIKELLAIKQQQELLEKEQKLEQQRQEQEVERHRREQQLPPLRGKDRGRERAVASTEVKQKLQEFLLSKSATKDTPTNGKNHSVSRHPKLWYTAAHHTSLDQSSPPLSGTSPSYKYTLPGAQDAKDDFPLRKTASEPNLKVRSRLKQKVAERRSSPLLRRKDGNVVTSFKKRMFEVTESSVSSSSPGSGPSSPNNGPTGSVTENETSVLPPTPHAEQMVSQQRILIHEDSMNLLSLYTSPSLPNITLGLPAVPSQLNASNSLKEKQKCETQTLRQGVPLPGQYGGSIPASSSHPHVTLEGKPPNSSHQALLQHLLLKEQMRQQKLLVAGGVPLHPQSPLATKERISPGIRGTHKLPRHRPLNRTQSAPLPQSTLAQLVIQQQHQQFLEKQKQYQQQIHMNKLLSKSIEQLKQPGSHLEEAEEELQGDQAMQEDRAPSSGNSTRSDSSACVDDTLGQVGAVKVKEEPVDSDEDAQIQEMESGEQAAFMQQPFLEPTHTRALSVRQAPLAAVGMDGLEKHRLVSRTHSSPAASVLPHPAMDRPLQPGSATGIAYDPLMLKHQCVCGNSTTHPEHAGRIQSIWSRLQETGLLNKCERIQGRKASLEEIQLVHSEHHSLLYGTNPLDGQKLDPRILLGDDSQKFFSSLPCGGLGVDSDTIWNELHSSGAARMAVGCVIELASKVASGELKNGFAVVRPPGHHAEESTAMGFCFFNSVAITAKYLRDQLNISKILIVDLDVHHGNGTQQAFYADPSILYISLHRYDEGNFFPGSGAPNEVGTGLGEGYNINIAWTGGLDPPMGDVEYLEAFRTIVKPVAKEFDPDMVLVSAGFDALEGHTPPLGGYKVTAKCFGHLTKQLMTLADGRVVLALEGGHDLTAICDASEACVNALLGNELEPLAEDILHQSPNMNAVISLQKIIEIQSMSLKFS

[6] = Competitive inhibition of N-terminal His-SUMO tagged zebra fish recombinant HDAC6 catalytic domain 2 transfected with pET28b(+) vector in Escherichia coli BL21 (DE3) RILP cells incubated for 10 mins followed by addition of FITC-M344 measured af ter 10 mins by fluorescence polarization assay; design: species or system Danio rerio
[7] = Cytotoxicity against HUVEC cells assessed as inhibition of cell growth incubated for 72 hrs measured by spectrophotometer analysis; assay type: toxicity, cell-based; conditions: human
[8] = target: T1, Protein deacetylase HDAC6 (Homo sapiens); test: Potency index, ratio of test compound residence time to KT-531 residence time in full length HDAC6-NanoLuc fusion protein (unknown origin) expressed in HeLa cells by NanoBRET assay; assay type: cell-based; conditions: time 5.0 min
[9] = target: Histone deacetylase 4 (Homo sapiens, UniProt P56524); test: Inhibition of full length human recombinant HDAC4 expressed in Sf9 baculovirus system using FAM-labeled acetylated peptide as substrate by measuring fluorescence intensity by EMSA method
Sequence of Histone deacetylase 4 (P56524 whole entry): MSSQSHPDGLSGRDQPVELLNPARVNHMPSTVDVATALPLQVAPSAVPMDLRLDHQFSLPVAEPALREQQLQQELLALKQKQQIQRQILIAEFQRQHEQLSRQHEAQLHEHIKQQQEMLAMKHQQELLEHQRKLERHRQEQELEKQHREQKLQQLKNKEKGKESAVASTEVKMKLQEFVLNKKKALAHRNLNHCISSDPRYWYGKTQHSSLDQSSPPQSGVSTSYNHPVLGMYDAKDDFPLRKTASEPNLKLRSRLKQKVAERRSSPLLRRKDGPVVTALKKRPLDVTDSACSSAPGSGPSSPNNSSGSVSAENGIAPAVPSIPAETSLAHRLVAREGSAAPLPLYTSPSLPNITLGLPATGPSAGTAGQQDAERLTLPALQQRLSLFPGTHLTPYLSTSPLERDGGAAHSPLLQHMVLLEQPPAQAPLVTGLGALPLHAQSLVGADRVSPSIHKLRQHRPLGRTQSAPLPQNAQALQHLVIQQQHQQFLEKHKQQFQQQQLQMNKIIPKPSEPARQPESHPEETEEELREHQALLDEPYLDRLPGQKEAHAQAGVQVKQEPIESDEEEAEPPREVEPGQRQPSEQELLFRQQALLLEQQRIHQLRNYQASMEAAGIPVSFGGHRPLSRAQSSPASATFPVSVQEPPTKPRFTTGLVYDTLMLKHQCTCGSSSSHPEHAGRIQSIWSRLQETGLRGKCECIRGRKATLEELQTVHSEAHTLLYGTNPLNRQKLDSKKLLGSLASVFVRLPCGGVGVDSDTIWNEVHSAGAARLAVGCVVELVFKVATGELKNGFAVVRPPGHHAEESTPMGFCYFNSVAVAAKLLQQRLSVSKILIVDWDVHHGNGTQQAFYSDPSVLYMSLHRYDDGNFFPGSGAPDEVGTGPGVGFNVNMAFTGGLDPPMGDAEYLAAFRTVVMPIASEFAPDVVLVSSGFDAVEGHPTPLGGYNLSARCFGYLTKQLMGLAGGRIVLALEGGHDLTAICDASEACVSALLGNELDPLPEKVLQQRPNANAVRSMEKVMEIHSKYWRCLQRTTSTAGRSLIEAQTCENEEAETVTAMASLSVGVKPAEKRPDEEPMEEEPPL

[10] = system: MV4-11; test: Induction of apoptosis in human MV4-11 cells assessed as late apoptotic cells at 1 uM after 24 hrs by Annexin V/PI staining based flow cytometric analysis (Rvb=2%); assay type: functional
[11] = system: MM1.S; test: Cytotoxicity against human MM1.S cells assessed as inhibition of cell growth incubated for 72 hrs measured by spectrophotometer analysis; assay type: functional, cell-based
[12] = system: MV4-11; test: Induction of apoptosis in human MV4-11 cells assessed as late apoptotic cells at 2 uM after 18 hrs by Annexin V/PI staining based flow cytometric analysis; assay type: functional

With `CC(C)N(Cc1ccc(C(=O)NO)cc1)S(=O)(=O)c1cc(F)c(F)c(F)c1F` the fold change (FC) [1] was 2, the IC50 at 72 h [2] was greater than 50 µM and the IC50 [3] was greater than 3 µM. For the same molecule, the Activity [4] was 23.4%, the IC50 [5] was greater than 5 µM and the IC50 [6] was 139 nM. It also gave an IC50 at 72 h [7] of 10.1 µM, a fold change (FC) [8] of 1.9 and an IC50 [9] greater than 4 µM. The Activity [10] was 10.88%, the IC50 [11] was 1380 nM and the Activity [12] was 39%.

Reference: ChEMBL document CHEMBL5154721, “Discovery of HDAC6-Selective Inhibitor NN-390 with in Vitro Efficacy in Group 3 Medulloblastoma” (J Med Chem, 2022)
